Assay results: patent US20040037022A1, “Aminoalcohol derivatives” (priority 2000, published 2004)

Tests used:
anesthetized dog = assay: Effect on the increase in intravesical pressure induced by carbachol in anesthetized dog; format: in vivo; settings: 0.32 mg/kg by intra-duodena route 30 minutes before carbachol (1.8 μg/kg); female Beagle dogs under halothane anesthesia; N = 2; Control 7.0 ± 1.0
Protocol: Effect on the increase in intravesical pressure induced by carbachol in anesthetized dog
Female Beagle dogs weighing 8.0-15.0 kg were fasted for 24 hours and maintained under halothane anesthesia. A 12F Foley catheter was lubricated with water soluble jelly, inserted into the urethral orifice and advanced approximately 10 cm until the balloon tip was placed well inside the bladder. The balloon was then inflated with 5 ml of room air and catheter slowly withdrawn just part the first resistance that is felt at the bladder neck. Urine was completely drained out through the catheter, and 30 ml of biological saline was infused. The catheter was connected to pressure transducer, and intravesical pressure was continuously recorded. The test compound was injected by intra-duodena route at 30 minutes before the administration of carbachol (1.8 μg/kg).

melting point [°C] | SMILES | Increase in intravesical pressure (anesthetized dog) [mmHg]
124 to 125 | O=C(Nc1ccc(C[C@@H](CO)NC[C@H](O)COc2ccccc2)cc1)c1ccccc1 [4-(2), N-[4-[(2S)-3-Hydroxy-2-[[(2S)-2-hydroxy-3-phenoxypropyl)amino]propyl]phenyl)benzamide] | 
115 to 116 | CN(C(=O)c1ccccc1)c1ccc(C[C@@H](CO)NC[C@H](O)COc2ccccc2)cc1 [4-(11), N-[4-[(2S)-3-Hydroxy-2-[[(2S)-2-hydroxy-3-phenoxypropyl]amino]propyl]phenyl]-N-methylbenzamide] | 
129 to 130 | CCNC(=O)Nc1ccc(C[C@@H](CO)NC[C@H](O)COc2ccccc2)cc1 [Example 2, N-ethyl-N′-[4-[(2S)-3-hydroxy-2-[[(2S)-2-hydroxy-3-phenoxypropyl]amino]-propyl]phenyl]urea] | 
 | O=C(Nc1ccc(C[C@@H](CO)NC[C@H](O)COc2ccccc2)cc1)c1ccc[nH]1 [Test Compound (1), N-[4-[(2S)-3-Hydroxy-2-[[(2S)-2-hydroxy-3-phenoxypropyl)amino]propyl]phenyl]-1H-pyrrole-2-carboxamide] | 2.6 ± 0.05
